Results from publication PMC3197876 (Journal of medicinal chemistry, 2011).
“Also recorded” adds a separate entry of the source. Read-outs that look alike come from different tables or passages of the source.

Experiments:
5-HT5A = 5-HT5A (Homo sapiens, UniProt P47898); assay: PDSP primary binding screen; conditions: read-out: %Inhibition 5-HT5A
M5 muscarinic receptor = biological target: T1, M5 muscarinic receptor (Homo sapiens, UniProt P08912); assay: PDSP primary binding screen; conditions: read-out: %Inhibition M5
T1 sequence (P08912 1-532): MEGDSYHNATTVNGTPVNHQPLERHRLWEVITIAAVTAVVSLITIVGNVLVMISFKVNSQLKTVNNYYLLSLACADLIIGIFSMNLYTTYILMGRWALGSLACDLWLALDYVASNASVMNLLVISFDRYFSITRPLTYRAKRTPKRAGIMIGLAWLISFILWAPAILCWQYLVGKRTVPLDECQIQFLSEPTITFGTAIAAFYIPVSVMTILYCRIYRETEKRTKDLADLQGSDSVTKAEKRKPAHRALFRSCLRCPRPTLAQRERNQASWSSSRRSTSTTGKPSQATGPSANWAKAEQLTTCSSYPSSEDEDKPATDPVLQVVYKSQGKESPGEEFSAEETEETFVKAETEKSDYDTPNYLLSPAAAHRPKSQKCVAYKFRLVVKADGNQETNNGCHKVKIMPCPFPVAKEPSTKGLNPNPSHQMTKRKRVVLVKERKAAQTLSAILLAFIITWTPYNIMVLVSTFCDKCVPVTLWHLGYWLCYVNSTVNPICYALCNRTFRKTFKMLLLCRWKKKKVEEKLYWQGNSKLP

α4β2* nAChR (native) = α4β2* nAChR (native) (Rattus norvegicus, UniProt P09483+P12390); assay: [3H]epibatidine binding competition, rat forebrain membranes
[1] = biological target: DAT: Dopamine Transporter (Homo sapiens, UniProt Q01959); assay: PDSP primary binding screen; conditions: read-out: %Inhibition DAT
BALB/cJ male mice = format: in vivo, mouse
[2] = In vitro metabolism with human liver microsomes; format: in vitro ADME; conditions: 1 µM
β2* nAChR = β2* nAChR (Mus musculus, UniProt O70174+Q9ERK7); assay: β2* nAChR ex vivo receptor occupancy in the thalamus; conditions: for receptor occupancy at 3 mg/kg: mouse, ip, read-out: ex vivo receptor occupancy at β2* receptors
β3 adrenergic receptor = β3 adrenergic receptor (Homo sapiens, UniProt P13945); assay: PDSP primary binding screen; conditions: read-out: %Inhibition β3
α4β2 nAChR = α4β2 nAChR (Rattus norvegicus, UniProt P09483+P12390); format: binding; conditions: ratio of Ki values
[3] = system: nine different CYP450 enzymes; assay: CYP450 inhibition; format: in vitro ADME
[4] = In vitro metabolism with mouse liver microsomes; format: in vitro ADME; conditions: 1 µM
human α4β2-nAChR = human α4β2-nAChR (Homo sapiens, UniProt P17787+P43681); assay: 86Rb+ efflux assay in SH-EP1-hα4β2 cells; conditions: 86Rb+ ion flux assay
[5] = biological target: H1 histaminergic receptor (Homo sapiens, UniProt P35367); assay: PDSP primary binding screen; conditions: read-out: %Inhibition H1
[6] = intraperitoneal, 1 mg/kg, 30 min before test

| SMILES | Ki (α4β2* nAChR (native)) [nM] | immobility in forced swim test (BALB/cJ male mice; [6]) | immobility in forced swim test (BALB/cJ male mice; intraperitoneal, 3 mg/kg) | immobility in forced swim test (BALB/cJ male mice; oral, 10 mg/kg) | receptor occupancy at 3 mg/kg (β2* nAChR) [%] | selectivity for α4β2- over α3β4-nAChR (α4β2 nAChR) | functional characterization at α4β2-nAChRs (human α4β2-nAChR) | also measured |
| --- | --- | --- | --- | --- | --- | --- | --- | --- |
| Cl.OCCCc1cc(-c2cncc(OC[C@@H]3CCN3)c2)on1 [Compound 3, 3-[5-[5-(2(S)-Azetidinylmethoxy)-3-pyridyl]-3-isoxazolyl]-1-propanol Hydrochloride] | 1.9 ± 0.3 | insignificant trend | significant reduction in immobility | decreased the time immobile; also recorded: reduced immobility | 60 to 70 | ~15,000 fold | partial agonist | inhibition at 10 µM (5-HT5A): -17.8%; inhibition at 10 µM (M5 muscarinic receptor): -18.9%; inhibition at 10 µM [1]: -10.1%; immobility in forced swim test (BALB/cJ male mice; oral, 1 and 3 mg/kg): failed to show significant activity; immobility in forced swim test (Figure 5) (BALB/cJ male mice; oral, lowest dose): slightly higher; metabolism with human liver microsomes [2]: no detectable metabolism; inhibition at 10 µM (β3 adrenergic receptor): -17.7%; inhibitory potential towards nine different CYP450 enzymes [3]: no significant inhibition; metabolism with mouse liver microsomes [4]: no detectable metabolism; inhibition at 10 µM [5]: -19.9% |
| Cl.OCc1cc(-c2cncc(OC[C@@H]3CCN3)c2)on1 [Compound 4, 5-[5-(2(S)-Azetidinylmethoxy)-3-pyridyl]-3-isoxazolylmethanol Hydrochloride] | 0.61 ± 0.1 |  |  |  | 60 to 70 | 20,000 fold | partial agonists | immobility in forced swim test (Figure 3) (BALB/cJ male mice; intraperitoneal, highest dose only): insignificant trend |
| Cl.OCCc1cc(-c2cncc(OC[C@@H]3CCN3)c2)on1 [Compound 5, 2-[5-[5-(2(S)-Azetidinylmethoxyl)-3-pyridyl]-3-isoxazolyl]ethanol Hydrochloride] |  | significant reduction in immobility | significant reduction in immobility | decreased the time immobile | ~80 |  |  | immobility in forced swim test (Figure 5) (BALB/cJ male mice; oral, all doses tested): efficacious; receptor occupancy (Figure 4, in words) (β2* nAChR; 3 mg/kg intraperitoneal, mice): higher receptor occupancy |
| CN[C@H]1CC[C@@H](c2ccc(Cl)c(Cl)c2)c2ccccc21 [sertraline, reference compound] |  |  |  |  |  |  |  | immobility in forced swim test (Figure 5) (BALB/cJ male mice; positive control in oral study, 10 or 20 mg/kg): expected decrease in immobility; immobility in forced swim test (Figure 3) (BALB/cJ male mice; positive control, intraperitoneal, 10 or 20 mg/kg): expected decrease in immobility |
